Read-outs that look alike come from different tables or passages of the source.
Target: IDH1-R132H recombinant protein (Homo sapiens, UniProt O75874, R132H)
Test: IDH1-R132H enzymatic assay (NADPH consumption, diaphorase/resazurin readout)
Format: biochemical
Method: Assays were performed in a 384-well black plate. An aliquot of 250 nL of compound was incubated with 10 μL of 30 nM IDH1-R132H or 10 nM IDH1-R132C recombinant protein in assay buffer (50 mM Tris pH=7.5, 150 mM NaCl, 5 mM MgCl2, 0.1% (w/v) Bovine Serum Albumin, and 0.01% Triton X-100) in each well at 25° C. for 15 minutes. After the plate was centrifuged briefly, an aliquot of 10 μL of 2 mM α-ketoglutarate and 20 μM NADPH solution prepared in assay buffer was then added to each well and the reaction was maintained at 25° C. for 45 minutes. An aliquot of 10 μL of diaphorase solution (0.15 U/mL diaphorase and 30 μM Resazurin in assay buffer) was added to each well. […] The IC50 of a given compound was calculated by fitting the dose response curve of inhibition of NADPH consumption at a given concentration with the four parameter logistic equation.

[1] = read-out: Enzyme IDH1 R132H IC50 Range

Chain of IDH1-R132H recombinant protein (O75874 whole entry R132H): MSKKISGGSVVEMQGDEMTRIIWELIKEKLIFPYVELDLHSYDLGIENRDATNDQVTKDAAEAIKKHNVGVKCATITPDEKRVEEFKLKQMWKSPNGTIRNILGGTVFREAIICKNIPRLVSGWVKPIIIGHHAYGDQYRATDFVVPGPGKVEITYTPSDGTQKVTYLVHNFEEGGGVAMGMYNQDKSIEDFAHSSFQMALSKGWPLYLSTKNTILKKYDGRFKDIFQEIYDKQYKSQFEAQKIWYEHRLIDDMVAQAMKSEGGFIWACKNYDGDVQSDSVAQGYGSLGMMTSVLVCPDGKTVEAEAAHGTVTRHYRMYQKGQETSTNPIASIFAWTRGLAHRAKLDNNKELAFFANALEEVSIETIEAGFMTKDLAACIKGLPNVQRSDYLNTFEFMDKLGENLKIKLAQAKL

Row | Structure (SMILES) | IC50 [1] [µM] | IC50 [µM]
1 | N#Cc1ccc(NCc2cc3cc(Cl)ccc3[nH]c2=O)cc1OCC(N)=O [Compound I-14, 2-(5-{[(6-chloro-2-oxo-1,2-dihydroquinolin-3-yl)methyl]amino}-2-cyanophenoxy)acetamide] | > 1 | 
2 | CCOc1cc(NCc2cc3cc(Cl)ccc3[nH]c2=O)ccc1C#N [Compound I-13, 4-{[(6-chloro-2-oxo-1,2-dihydroquinolin-3-yl)methyl]amino}-2-ethoxybenzonitrile] | 0.1 to 1 | 
3 | CNC(=O)c1ccc(NCc2cc3cc(Cl)ccc3[nH]c2=O)cc1 [Compound I-42, 4-{[(6-chloro-2-oxo-1,2-dihydroquinolin-3-yl)methyl]amino}-N-methylbenzamide] | > 1 | 
4 | COc1cc(C#N)ccc1NCc1cc2cc(Cl)ccc2[nH]c1=O [Compound I-34, 4-{[(6-chloro-2-oxo-1,2-dihydroquinolin-3-yl)methyl]amino}-3-methoxybenzonitrile] | 0.1 to 1 | 
5 | N#CCc1cccc(NCc2cc3cc(Cl)ccc3[nH]c2=O)c1 [Compound I-45, 2-(3-{[(6-chloro-2-oxo-1,2-dihydroquinolin-3-yl)methyl]amino}phenyl)acetonitrile] | > 1 | 
6 | COc1cc(NCc2cc3cc(Cl)c(O)cc3[nH]c2=O)ccc1C#N [Compound I-57, 4-{[(6-chloro-7-hydroxy-2-oxo-1,2-dihydroquinolin-3-yl)methyl]amino}-2-methoxybenzonitrile] | 0.01 to 0.1 | 
7 | COc1cc(NCc2cc3cc(Cl)ccc3[nH]c2=O)ccc1-n1ccnc1 [Compound I-12, 6-chloro-3-({[4-(1H-imidazol-1-yl)-3-methoxyphenyl]amino}methyl)-1,2-dihydroquinolin-2-one] | > 1 | 
8 | NC(=O)c1ccccc1NCc1cc2cc(Cl)ccc2[nH]c1=O [Compound I-40, 2-{[(6-chloro-2-oxo-1,2-dihydroquinolin-3-yl)methyl]amino}benzamide] | > 1 | 
9 | COc1cc(N[C@H](C)c2cc3cc(Cl)ccc3[nH]c2=O)ccc1C#N [Compound I-3, 4-{[(1R)-1-(6-chloro-2-oxo-1,2-dihydroquinolin-3-yl)ethyl]amino}-2-methoxybenzonitrile] | > 1 | 
10 | O=c1[nH]c2ccccc2cc1CNc1ccc(-n2cnnn2)cc1 [Compound I-49, 3-({[4-(1H-1,2,3,4-tetrazol-1-yl)phenyl]amino}methyl)-1,2-dihydroquinolin-2-one] | > 1 | 
11 | COc1cc(NCc2cc3cc(I)ccc3[nH]c2=O)ccc1C#N [Compound I-28, 4-{[(6-iodo-2-oxo-1,2-dihydroquinolin-3-yl)methyl]amino}-2-methoxybenzonitrile] | 0.1 to 1 | 
12 | COc1cc(NCc2cc3cc(Cl)ccc3[nH]c2=O)ccc1S(C)(=O)=O [Compound I-15, 6-chloro-3-{[(4-methanesulfonyl-3-methoxyphenyl)amino]methyl}-1,2-dihydroquinolin-2-one] | > 1 | 
13 | COc1cc(NCc2cc3cc(C)c(C)cc3[nH]c2=O)ccc1C#N [Compound I-17, 4-{[(6,7-dimethyl-2-oxo-1,2-dihydroquinolin-3-yl)methyl]amino}-2-methoxybenzonitrile] | > 1 | 
14 | COc1ccc2cc(CNc3ccc(C#N)c(OC)c3)c(=O)[nH]c2c1 [Compound I-56, 2-methoxy-4-{[(7-methoxy-2-oxo-1,2-dihydroquinolin-3-yl)methyl]amino}benzonitrile] | 0.1 to 1 | 
15 | COc1cc(NCc2cc3cc(C)c(C)cc3[nH]c2=O)ccc1-n1cnnn1 [Compound I-20, 3-({[3-methoxy-4-(1H-1,2,3,4-tetrazol-1-yl)phenyl]amino}methyl)-6,7-dimethyl-1,2-dihydroquinolin-2-one] | 0.1 to 1 | 
16 | C[C@H](Nc1ccc(C#N)cc1S(C)(=O)=O)c1cc2cc(Cl)ccc2[nH]c1=O [Compound I-4, 4-{[(1S)-1-(6-chloro-2-oxo-1,2-dihydroquinolin-3-yl)ethyl]amino}-3-methanesulfonylbenzonitrile] | > 1 | 
17 | O=c1[nH]c2ccc(Cl)cc2cc1CNc1ccc(-n2ccnc2)cc1 [Compound I-39, 6-chloro-3-({[4-(1H-imidazol-1-yl)phenyl]amino}methyl)-1,2-dihydroquinolin-2-one] | > 1 | 
18 | COc1cc(NCc2cc3cc(C)ccc3[nH]c2=O)ccc1-n1cnc(C)c1 [Compound I-18, 3-({[3-methoxy-4-(4-methyl-1H-imidazol-1-yl)phenyl]amino}methyl)-6-methyl-1,2-dihydroquinolin-2-one] | > 1 | 
19 | N#Cc1ccc(NCc2cc3cc(Cl)ccc3[nH]c2=O)cc1OCCO [Compound I-11, 4-{[(6-chloro-2-oxo-1,2-dihydroquinolin-3-yl)methyl]amino}-2-(2-hydroxyethoxy)benzonitrile] | 0.1 to 1 | 
20 | CCOCCOc1cc2[nH]c(=O)c(CNc3ccc(C#N)c(OC)c3)cc2cc1Cl [Compound I-93, 4-({[6-chloro-7-(2-ethoxyethoxy)-2-oxo-1,2-dihydroquinolin-3-yl]methyl}amino)-2-methoxybenzonitrile] | 0.1 to 1 | 

Row | Structure (SMILES) | IC50 [1] [µM] | IC50 [µM]
21 | COc1cc(NCc2cc3ccccc3[nH]c2=O)ccc1-n1cnnn1 [Compound I-48, 3-({[3-methoxy-4-(1H-1,2,3,4-tetrazol-1-yl)phenyl]amino}methyl)-1,2-dihydroquinolin-2-one] | > 1 | 
22 | Cc1cc2cc(CNc3cccc(S(=O)(=O)NC4=NCCC4)c3)c(=O)[nH]c2cc1C [Compound I-19, N-(3,4-dihydro-2H-pyrrol-5-yl)-3-{[(6,7-dimethyl-2-oxo-1,2-dihydroquinolin-3-yl)methyl]amino}benzene-1-sulfonamide] | > 1 | 
23 | COc1cc(NCc2cc3ccc(C)cc3[nH]c2=O)ccc1C#N [Compound I-54, 2-methoxy-4-{[(7-methyl-2-oxo-1,2-dihydroquinolin-3-yl)methyl]amino}benzonitrile] | 0.1 to 1 | 
24 | N#Cc1ccc(NCc2cc3cc(Cl)ccc3[nH]c2=O)cc1F [Compound I-37, 4-{[(6-chloro-2-oxo-1,2-dihydroquinolin-3-yl)methyl]amino}-2-fluorobenzonitrile] |  | 0.1 to 1
25 | COc1cc(NCc2cc3cccnc3[nH]c2=O)ccc1C#N [Compound I-31, 2-methoxy-4-{[(2-oxo-1,2-dihydro-1,8-naphthyridin-3-yl)methyl]amino}benzonitrile] | > 1 | 
26 | CCOc1ccc2[nH]c(=O)c(CNc3ccc(C#N)c(OC)c3)cc2c1 [Compound I-55, 4-{[(6-ethoxy-2-oxo-1,2-dihydroquinolin-3-yl)methyl]amino}-2-methoxybenzonitrile] | 0.1 to 1 | 
27 | COc1cc(NCc2cc3cc(Cl)cc(O)c3[nH]c2=O)ccc1C#N [Compound I-96, 4-{[(6-chloro-8-hydroxy-2-oxo-1,2-dihydroquinolin-3-yl)methyl]amino}-2-methoxybenzonitrile] | 0.1 to 1 | 
28 | COc1cc(NCc2cc3ccc(Cl)cc3[nH]c2=O)ccc1C#N [Compound I-29, 4-{[(7-chloro-2-oxo-1,2-dihydroquinolin-3-yl)methyl]amino}-2-methoxybenzonitrile] | 0.1 to 1 | 
29 | Cc1cc2cc(CNc3ccc(-n4cnnn4)cc3)c(=O)[nH]c2cc1C [Compound I-51, 6,7-dimethyl-3-({[4-(1H-1,2,3,4-tetrazol-1-yl)phenyl]amino}methyl)-1,2-dihydroquinolin-2-one] | > 1 | 
30 | NC(=O)COc1ccc(NCc2cc3cc(Cl)ccc3[nH]c2=O)cc1 [Compound I-43, 2-(4-{[(6-chloro-2-oxo-1,2-dihydroquinolin-3-yl)methyl]amino}phenoxy)acetamide] | > 1 | 
31 | COc1cc(NCc2cc3cc(Cl)ccc3[nH]c2=O)ccc1Cl [Compound I-44, 6-chloro-3-{[(4-chloro-3-methoxyphenyl)amino]methyl}-1,2-dihydroquinolin-2-one] | > 1 | 
32 | COc1cc(NCc2cc3cc(Br)ccc3[nH]c2=O)ccc1C#N [Compound I-23, 4-{[(6-bromo-2-oxo-1,2-dihydroquinolin-3-yl)methyl]amino}-2-methoxybenzonitrile] | 0.01 to 0.1 | 
33 | COc1cc(N[C@@H](C)c2cc3cc(Cl)ccc3[nH]c2=O)ccc1S(C)(=O)=O [Compound I-6, 6-chloro-3-[(1S)-1-[(4-methanesulfonyl-3-methoxyphenyl)amino]ethyl]-1,2-dihydroquinolin-2-one] | > 1 | 
34 | COc1cc(NCc2cc3cc(C)ccc3[nH]c2=O)ccc1C#N [Compound I-50, 2-methoxy-4-{[(6-methyl-2-oxo-1,2-dihydroquinolin-3-yl)methyl]amino}benzonitrile] | 0.1 to 1 | 
35 | O=c1[nH]c2ccc(Cl)cc2cc1CNc1ccccc1F [Compound I-46, 6-chloro-3-{[(2-fluorophenyl)amino]methyl}-1,2-dihydroquinolin-2-one] | > 1 | 
36 | N#Cc1ccc(NCc2cc3cc(Cl)ccc3[nH]c2=O)cc1C(F)(F)F [Compound I-35, 4-{[(6-chloro-2-oxo-1,2-dihydroquinolin-3-yl)methyl]amino}-2-(trifluoromethyl)benzonitrile] |  | 0.1 to 1
37 | COc1ccc2[nH]c(=O)c(CNc3ccc(C#N)c(OC)c3)cc2c1 [Compound I-52, 2-methoxy-4-{[(6-methoxy-2-oxo-1,2-dihydroquinolin-3-yl)methyl]amino}benzonitrile] | 0.1 to 1 | 
38 | COc1cc(NCc2cc3cc(Cl)ccc3[nH]c2=O)ccc1F [Compound I-41, 6-chloro-3-{[(4-fluoro-3-methoxyphenyl)amino]methyl}-1,2-dihydroquinolin-2-one] | > 1 | 
39 | COc1ccc2[nH]c(=O)c(CNc3ccc(-n4ccnc4)cc3)cc2c1 [Compound I-53, 3-({[4-(1H-imidazol-1-yl)phenyl]amino}methyl)-6-methoxy-1,2-dihydroquinolin-2-one] | > 1 | 

— US10266495B2, “Phenyl quinolinone derivatives as mutant-isocitrate dehydrogenase inhibitors” (FORMA TM2, Inc., priority 2014, dated 2019)
